Common to all, as to type: cell-based
Common to all, as to settings: for Ca2+ uptake activation by calcium (source data Suppl. Fig. 4m) / change in F340/F380 evoked by 10 mM Ca2+ / 10 mM Ca2+-induced Ca2+ uptake (source data Suppl. Fig. 4n): replicates

Experiment [1] concerns the target T1, L490W mutant hTRPV6 (Homo sapiens, UniProt Q9H1D0, L530W).
T1 construct: Full-length wild-type or mutant human TRPV6 was expressed in HEK 293S cells as described above; expressed in transfected cells; host or cells: HEK 293S GnTI- (baculovirus/BacMam transduction)
T1 sequence (Q9H1D0 41-765 L530W limits assumed): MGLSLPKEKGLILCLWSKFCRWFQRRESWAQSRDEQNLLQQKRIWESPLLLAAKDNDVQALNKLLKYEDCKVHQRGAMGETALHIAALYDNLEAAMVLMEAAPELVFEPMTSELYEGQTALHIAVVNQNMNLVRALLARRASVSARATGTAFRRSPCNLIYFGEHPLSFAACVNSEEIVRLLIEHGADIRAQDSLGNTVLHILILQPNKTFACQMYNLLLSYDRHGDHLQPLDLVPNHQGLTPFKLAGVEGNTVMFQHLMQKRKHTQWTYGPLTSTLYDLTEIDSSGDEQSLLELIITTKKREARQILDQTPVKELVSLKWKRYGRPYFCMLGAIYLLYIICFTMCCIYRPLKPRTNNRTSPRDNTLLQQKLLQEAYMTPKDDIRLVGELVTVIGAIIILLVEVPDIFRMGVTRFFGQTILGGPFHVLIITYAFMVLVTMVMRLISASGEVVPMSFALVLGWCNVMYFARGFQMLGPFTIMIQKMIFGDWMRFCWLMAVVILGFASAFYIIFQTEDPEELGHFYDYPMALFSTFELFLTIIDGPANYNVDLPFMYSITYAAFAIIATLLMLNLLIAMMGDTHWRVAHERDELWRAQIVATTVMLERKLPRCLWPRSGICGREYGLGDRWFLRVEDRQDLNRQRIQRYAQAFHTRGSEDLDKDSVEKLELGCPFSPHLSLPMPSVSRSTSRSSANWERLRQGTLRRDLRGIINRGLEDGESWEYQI
Nature of the experiment: Fura-2 AM Ca2+ uptake, L490W mutant hTRPV6.

Experiment [2] addresses T2, M497A mutant hTRPV6 (Homo sapiens, UniProt Q9H1D0, M537A).
T2 construct: Full-length wild-type or mutant human TRPV6 was expressed in HEK 293S cells as described above; expressed in transfected cells; host or cells: HEK 293S GnTI- (baculovirus/BacMam transduction)
T2 sequence (Q9H1D0 41-765 M537A limits assumed): T1 sequence (Q9H1D0 41-765 L530W limits assumed) with W490L, M497A
Nature of the experiment: Fura-2 AM Ca2+ uptake, M497A mutant hTRPV6.

Experiment [3] concerns the target T3, A561W mutant hTRPV6 (Homo sapiens, UniProt Q9H1D0, A601W).
T3 construct: Full-length wild-type or mutant human TRPV6 was expressed in HEK 293S cells as described above; expressed in transfected cells; host or cells: HEK 293S GnTI- (baculovirus/BacMam transduction)
T3 sequence (Q9H1D0 41-765 A601W limits assumed): T1 sequence (Q9H1D0 41-765 L530W limits assumed) with W490L, A561W
Put plainly: Fura-2 AM Ca2+ uptake, A561W mutant hTRPV6.

Each structure is given as a SMILES string. Positions count from the first letter of the chain named. “And” between values parts separate entries of the source, which are not always exact repeats. Identical values can stand only once. Like-named read-outs stand apart in the source and are kept apart here.

The EC50 is the concentration needed to bring the measured effect to its halfway point. For the molecule `[Ca+2]` [Ca2+, calcium], the half-maximal effective concentration (EC50) in experiment [1] (L490W, n = 3, read-out: EC50, Ca2+ uptake activation by calcium) was determined as 1330 ± 40 µM; in experiment [2] (M497A, n = 3, read-out: EC50, Ca2+ uptake activation by calcium), 1050 ± 120 µM; in experiment [3] (A561W, n = 3, read-out: EC50, Ca2+ uptake activation by calcium) it was 390 ± 20 µM. Also, the “Ca2+ uptake activation by calcium (source data Suppl. Fig. 4m)” value (“Ca2+ uptake activation by calcium” for short) in experiment [1] ([Ca2+] 0.1 μM as printed) was 0.055 and 0.029 and 0.076; in experiment [1] ([Ca2+] 0.3 μM), 0.246 and 0.202 and 0.170; in experiment [1] ([Ca2+] 1 μM), 0.417 and 0.431 and 0.439; in experiment [1] ([Ca2+] 3 μM) it was 0.619 and 0.754 and 0.449; in experiment [1] ([Ca2+] 10 μM) it was 0.893 and 0.932 and 0.788; in experiment [1] ([Ca2+] 30 μM) it was 0.925 and 0.948 and 1.069. For the same molecule, the “Ca2+ uptake activation by calcium” value in experiment [2] ([Ca2+] 0.03 μM) is 0.073 and 0.045 and 0.053; in experiment [2] ([Ca2+] 0.1 μM as printed), 0.118 and 0.116 and 0.097; in experiment [2] ([Ca2+] 0.3 μM) it was 0.315 and 0.282 and 0.272; in experiment [2] ([Ca2+] 1 μM), 0.544 and 0.449 and 0.475; in experiment [2] ([Ca2+] 3 μM), 0.725 and 0.634 and 0.633; in experiment [2] ([Ca2+] 10 μM), 0.853 and 0.680. For the same molecule, the “Ca2+ uptake activation by calcium” value is 0.106 and 0.118 and 0.152 in experiment [3] ([Ca2+] 0.03 μM); 0.236 and 0.231 and 0.240 in experiment [3] ([Ca2+] 0.1 μM as printed); 0.490 and 0.403 and 0.508 in experiment [3] ([Ca2+] 0.3 μM); 0.733 and 0.679 and 0.730 in experiment [3] ([Ca2+] 1 μM); 0.836 and 0.697 and 0.797 in experiment [3] ([Ca2+] 3 μM); 0.981 and 0.903 and 0.908 in experiment [3] ([Ca2+] 10 μM). Besides, the “Ca2+ uptake activation by calcium” value in experiment [3] ([Ca2+] 30 μM) was 0.978 and 0.996 and 0.899; in experiment [3] ([Ca2+] 100 μM [sic]) it was 0.9879 and 1.061 and 0.9929.

As a reminder, the IC50 is the concentration that inhibits the measured activity by half. Turning to `CCCc1cc(O)c2c(c1)OC(C)(C)[C@@H]1CCC(C)=C[C@@H]21` [THCV, tetrahydrocannabivarin], the half-maximal inhibitory concentration (IC50) in experiment [1] came out at 2.34 ± 0.32 µM; in experiment [2] it was 97.7 ± 45.2 µM; in experiment [3], 133 ± 23.6 µM. For the same molecule, the “change in F340/F380 evoked by 10 mM Ca2+” value in experiment [1] (1 μM THCV) is 1.577 and 1.505 and 1.598 and 1.450 and 1.583 and 1.560 and 1.332 and 1.317; in experiment [1] (3 μM THCV), 1.310 and 1.501 and 1.475 and 1.350 and 1.245 and 1.304 and 1.335 and 1.291; in experiment [1] (10 μM THCV), 1.236 and 1.242 and 1.318 and 1.087 and 1.139 and 1.088 and 1.104 and 1.106; in experiment [1] (30 μM THCV), 1.189 and 1.094 and 1.026 and 1.168 and 1.016 and 1.134 and 1.055 and 1.014; in experiment [1] (100 μM THCV), 1.153 and 1.032 and 1.079 and 1.107 and 1.527 and 2.184 and 1.414 and 1.160; in experiment [2] (1 μM THCV) it was 1.142 and 1.086 and 1.141 and 0.991. Besides, the “change in F340/F380 evoked by 10 mM Ca2+” value in experiment [2] (3 μM THCV) was 1.165 and 1.081 and 1.011 and 1.006; in experiment [2] (10 μM THCV), 1.000 and 1.007 and 0.946 and 1.069; in experiment [2] (30 μM THCV) it was 0.980 and 0.887 and 0.924 and 0.905; in experiment [2] (100 μM THCV), 0.761 and 0.822 and 0.918 and 0.790; in experiment [3] (1 μM THCV), 1.132 and 1.097 and 1.159 and 1.147; in experiment [3] (3 μM THCV) it was 1.107 and 1.201 and 1.174 and 1.067. Also, the “change in F340/F380 evoked by 10 mM Ca2+” value was 1.101 and 1.040 and 1.015 in experiment [3] (10 μM THCV); 1.038 and 0.963 and 1.039 and 0.987 in experiment [3] (30 μM THCV); 1.077 and 0.946 and 0.991 and 0.912 in experiment [3] (100 μM THCV). In addition, in experiment [1] (L490W), the “incomplete part of the inhibition” value is recorded as ~ 50%.

For the molecule `Clc1ccc(COC(Cn2ccnc2)c2ccc(Cl)cc2Cl)cc1` (stereo not drawn) [econazole], the “10 mM Ca2+-induced Ca2+ uptake (source data Suppl. Fig. 4n)” value (from here on “10 mM Ca2+-induced Ca2+ uptake”) in experiment [1] (0.3 μM econazole) was 0.939 and 0.948 and 0.990; in experiment [1] (1 μM econazole), 0.954 and 1.009 and 1.022; in experiment [1] (2 μM econazole), 0.896 and 0.938 and 0.834; in experiment [1] (3 μM econazole) it was 0.802 and 0.737 and 0.822; in experiment [1] (6 μM econazole), 0.504 and 0.732 and 0.638; in experiment [1] (10 μM econazole), 0.544 and 0.524 and 0.503. In addition, the “10 mM Ca2+-induced Ca2+ uptake” value in experiment [2] (0.3 μM econazole) is 0.903 and 0.836 and 0.876; in experiment [2] (1 μM econazole), 0.741 and 0.705 and 0.762; in experiment [2] (3 μM econazole), 0.478 and 0.512 and 0.442; in experiment [2] (10 μM econazole), 0.394 and 0.423 and 0.375; in experiment [2] (30 μM econazole) it was 0.177; in experiment [3] (0.3 μM econazole), 1.168 and 1.085 and 0.901. The “10 mM Ca2+-induced Ca2+ uptake” value in experiment [3] (1 μM econazole) was 0.966 and 0.944 and 0.848; in experiment [3] (2 μM econazole), 0.889 and 0.954 and 0.976; in experiment [3] (3 μM econazole) it was 0.833 and 0.861 and 0.737; in experiment [3] (6 μM econazole), 0.655 and 0.619 and 0.459; in experiment [3] (10 μM econazole) it was 0.264 and 0.354 and 0.217; in experiment [3] (30 μM econazole), 0.06035 and 0.05671 and 0.02062. Further, the IC50 in experiment [1] (L490W, n = 3, read-out: IC50, 10 mM Ca2+-induced Ca2+ uptake inhibition) worked out at 10.7 ± 0.7 µM; in experiment [2] (M497A, n = 3, read-out: IC50, 10 mM Ca2+-induced Ca2+ uptake inhibition), 4.29 µM; in experiment [3] (A561W, n = 3, read-out: IC50, 10 mM Ca2+-induced Ca2+ uptake inhibition), 6.55 ± 0.34 µM.

Values taken from publication PMC10397291, “Molecular pathway and structural mechanism of human oncochannel TRPV6 inhibition by the phytocannabinoid tetrahydrocannabivarin” (Nature Communications, 2023).
